This assay has as its system Staphylococcus aureus ATCC 25423. Description: Disk diffusion assay. To be noted: ATCC25423, 12 μg PenG, read-out: inhibition zone diameter. Type of assay: cell-based. The method, then:
The PMAA grafted magnetic nanoparticles were used to non-covalently attach the beta-lactam antibiotic penicillin-G (PenG) and subsequently tested for activity against bacteria. Escherichia coli (Gram-negative) and Staphylococcus aureus (Gram-positive) were selected as the target bacteria. The disk diffusion assay of PenG-nanoparticle complex was conducted with a control group of free PenG of the same dose (12 μg PenG). […] Thus, PMAA grafted magnetic nanoparticles enhanced the bioactivity of penG against bacteria when the nanoparticles were physically bound with PenG. Without wishing to be bound by any particular theory, it is believed that the enhanced inhibition activity was due to the locally high concentrations of antibiotics physically attached to PMAA grafted magnetic nanoparticles, which overwhelms the resistance of bacterial strains. The magnetic properties also offer a valuable stimulus technique to direct the nanoparticles in complicated bacterial environments, such as biofilms, while free antibiotic are not able to access cells in the sticky extracellular polymeric substances (EPS) of biofilms.
Escherichia coli ATCC 25922 and Staphylococcus aureus ATCC 25423 were allowed to grow in 10 mL of tryptic soy broth (TSB) at 37° C. overnight to an optical density of 0.8 (OD600=0.8) and then diluted 10-fold. 0.1 mL of the diluted culture was used to inoculate an agar plate. […]
Background: In agar diffusion tests the substance spreads into inoculated agar from a disc or well.

In the case of `CC1(C)S[C@@H]2[C@H](NC(=O)Cc3ccccc3)C(=O)N2[C@H]1C(=O)O` [free PenG, penicillin-G], the zone of inhibition at 12 µg/disc stood at 18 mm.

The record behind these values is patent US9504256B2, “Fabrication of magnetic nanoparticles” (University of South Carolina, priority 2013, dated 2016).
